Assay results from patent US20130109682A1, “CYCLIC ETHER COMPOUNDS USEFUL AS KINASE INHIBITORS” (NOVARTIS AG, priority 2010, published 2013).
pEC50, pIC50: −log10 of the molar value.

How the values were obtained:
GSK3β = GSK3β (Homo sapiens, UniProt P49841); assay: GSK3β ATP depletion assay; format: biochemical; settings: ATP depletion assay; read-out: GSK3b IC50
How it was run: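 Kinase activity is read as ATP consumption: luciferase luminescence reports the ATP remaining once roughly half of the 2 μM ATP is used. Reaction mix: 5 nM GSK3β, 10 μM b-CREB peptide, 50 mM Tris pH 7.5, 15 mM MgCl2, 1 mM DTT, 0.1% BSA, 2.5% DMSO. Enzyme and peptide are preincubated 15 min before ATP is added.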

PIM3 = PIM3 (Homo sapiens, UniProt Q86V86); assay: Pim 3 AlphaScreen assay (high ATP); format: biochemical; settings: read-out: Pim3 IC50
Description: (§1) Pim1, Pim2, Pim3 AlphaScreen Assay Pim 1, Pim 2 & Pim 3 AlphaScreen assays using high ATP (11-125×ATP Km) were used to determine the biochemical activity of the inhibitors. The activity of Pim 1, Pim 2, & Pim 3 is measured using a homogeneous bead based system quantifying the amount of phosphorylated peptide substrate resulting from kinase-catalyzed phosphoryl transfer to a peptide substrate. Compounds to be tested are dissolved in 100% DMSO and directly distributed to a white 384-well plate at […] per well. To start the reaction, 5 μl of 100 nM Bad peptide (Biotin-AGAGRSRHSSYPAGT —OH) and ATP (concentrations described below) in assay buffer (50 mM Hepes, pH=7.5, 5 mM MgCl2, 0.05% BSA, 0.01% Tween-20, 1 mM DTT) is added to each well. This is followed by the addition of 5 μl/well of Pim 1, Pim 2 or Pim 3 kinase in assay buffer (concentrations described below). Final assay concentrations (described below) are in 2.5% DMSO. The reactions are performed for ˜2 hours, then stopped by the addition of 10 μl of 0.75 μg/ml anti-phospho Ser/Thr antibody (Cell Signaling), 10 μg/ml Protein A AlphaScreen beads (Perkin Elmer), and 10 μg/ml streptavidin coated AlphaScreen beads in stop/detection buffer (50 mM EDTA, 95 mM Tris, pH=7.5, 0.01% Tween-20). The stopped reactions are incubated overnight in the dark. The phosphorylated peptide is detected via an […] initiated chemiluminescence/fluorescence cascade using the Envision plate reader (Perkin Elmer).
(§2) IC50, the half maximal inhibitory concentration, represents the concentration of a test compound that is required for 50% inhibition of its target in vitro under the described assay conditions.

PIM2 = PIM2 (Homo sapiens, UniProt Q9P1W9); assay: Pim 2 AlphaScreen assay (high ATP); format: biochemical; settings: read-out: Pim2 IC50
Sequence of PIM2 (Q9P1W9 whole entry): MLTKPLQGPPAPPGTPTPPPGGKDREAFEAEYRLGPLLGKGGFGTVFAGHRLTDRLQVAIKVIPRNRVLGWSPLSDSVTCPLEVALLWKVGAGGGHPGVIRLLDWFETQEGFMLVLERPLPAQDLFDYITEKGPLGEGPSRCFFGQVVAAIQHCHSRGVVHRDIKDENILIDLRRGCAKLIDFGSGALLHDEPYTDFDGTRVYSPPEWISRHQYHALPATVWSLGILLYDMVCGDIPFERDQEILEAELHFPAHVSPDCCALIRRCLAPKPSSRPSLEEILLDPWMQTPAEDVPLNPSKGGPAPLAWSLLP
Description: as §1, §2

PIM1 = PIM1 (Homo sapiens, UniProt P11309); assay: Pim 1 AlphaScreen assay (high ATP); format: biochemical; settings: read-out: Pim1 IC50
Sequence of PIM1 (P11309 whole entry): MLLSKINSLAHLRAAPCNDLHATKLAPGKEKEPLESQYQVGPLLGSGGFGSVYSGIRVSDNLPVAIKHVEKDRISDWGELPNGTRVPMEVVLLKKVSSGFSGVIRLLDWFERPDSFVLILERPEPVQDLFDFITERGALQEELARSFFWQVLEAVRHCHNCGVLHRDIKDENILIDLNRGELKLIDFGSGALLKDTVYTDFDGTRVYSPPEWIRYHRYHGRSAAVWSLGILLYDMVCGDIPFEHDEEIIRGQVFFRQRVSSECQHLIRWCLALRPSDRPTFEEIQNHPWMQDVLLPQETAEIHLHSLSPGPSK
Description: as §1, §2

[1] = tested on: KMS11 (human myeloma cell line); assay: Cell proliferation assay (CellTiter-Glo), KMS11; format: cell-based; settings: Homo sapiens, KMS-11; KMS11 cells, cell proliferation; read-out: KMS11-Luc EC50
How it was run: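 EC50 derived from CellTiter-Glo luminescence after 3-day exposure at 37° C. Compound was diluted to 2× in medium and added to an equal volume of cells. KMS11 myeloma cells were plated on assay day at 2000/well in IMDM with 10% FBS and sodium pyruvate.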

Sequence of GSK3β (P49841 whole entry, species assumed): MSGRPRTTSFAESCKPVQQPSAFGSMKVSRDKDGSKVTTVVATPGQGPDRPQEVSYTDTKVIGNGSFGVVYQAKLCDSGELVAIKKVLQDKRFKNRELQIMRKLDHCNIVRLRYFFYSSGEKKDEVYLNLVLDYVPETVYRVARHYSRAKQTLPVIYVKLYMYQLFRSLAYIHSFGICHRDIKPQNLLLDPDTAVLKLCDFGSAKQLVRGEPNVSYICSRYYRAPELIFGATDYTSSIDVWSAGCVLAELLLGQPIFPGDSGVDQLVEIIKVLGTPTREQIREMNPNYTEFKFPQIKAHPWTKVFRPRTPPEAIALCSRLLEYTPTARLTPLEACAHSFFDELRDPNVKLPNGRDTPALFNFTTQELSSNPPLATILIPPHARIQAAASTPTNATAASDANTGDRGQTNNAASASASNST

SMILES | pIC50 (GSK3β) | pIC50 (PIM3) | pIC50 (PIM2) | pIC50 (PIM1) | pEC50 [1]
C[C@]1(O)[C@H](N)C[C@H](c2ccncc2NC(=O)c2nc(-c3c(F)cccc3F)ncc2N)O[C@@H]1C1CC1 [Example 262, 5-amino-N-(4-((2R,4R,5S,6R)-4-amino-6-cyclopropyl-5-hydroxy-5-methyltetrahydro-2H-pyran-2-yl)pyridin-3-yl)-2-(2,6-difluorophenyl)pyrimidine-4-carboxamide] | 5.69 | 7.74 | 7.74 | 8.67 | 
CC(C)C1OC(c2ccncc2NC(=O)c2ccc(F)c(-c3c(F)cccc3F)n2)C[C@H](N)[C@H]1O (stereo in doubt) [Example 274, N-(4-((2S,4S,5R,6R)-4-amino-5-hydroxy-6-isopropyltetrahydro-2H-pyran-2-yl)pyridin-3-yl)-6-(2,6-difluorophenyl)-5-fluoropicolinamide] | 4.97 | 7.02 | 6.52 | 8.33 | 
CC[C@@H]1O[C@H](c2ccncc2NC(=O)c2ccc(F)c(-c3c(F)cccc3F)n2)C[C@H](N)[C@@]1(C)O (stereo in doubt) [Example 276, N-(4-((2S,4S,5R,6S)-4-amino-6-ethyl-5-hydroxy-5-methyltetrahydro-2H-pyran-2-yl)pyridin-3-yl)-6-(2,6-difluorophenyl)-5-fluoropicolinamide] | 4.68 | 8.34 | 7.76 | 9.33 | 
C[C@]1(O)[C@H](N)C[C@H](c2ccncc2NC(=O)c2nc(-c3c(F)cccc3F)c(F)cc2N)O[C@@H]1C1CC1 [Example 261, 3-amino-N-(4-((2R,4R,5S,6R)-4-amino-6-cyclopropyl-5-hydroxy-5-methyltetrahydro-2H-pyran-2-yl)pyridin-3-yl)-6-(2,6-difluorophenyl)-5-fluoropicolinamide] | 5.26 | 8.92 | 8.21 | 9.96 | 
C[C@]1(O)[C@H](N)C[C@H](c2ccncc2NC(=O)c2ccc(F)c(-c3c(F)cccc3F)n2)OC12CC2 [Example 267, N-(4-((5R,7R,8S)-7-amino-8-hydroxy-8-methyl-4-oxaspiro[2.5]octan-5-yl)pyridin-3-yl)-6-(2,6-difluorophenyl)-5-fluoropicolinamide] | 5.16 | 7.53 | 6.67 | 8.60 | 
CC(C)(C)[C@H]1O[C@@H](c2ccncc2NC(=O)c2ccc(F)c(-c3c(F)cccc3F)n2)C[C@@H](N)[C@@H]1O [Example 255, N-(4-((2R,4R,5S,6R)-4-amino-6-(tert-butyl)-5-hydroxytetrahydro-2H-pyran-2-yl)pyridin-3-yl)-6-(2,6-difluorophenyl)-5-fluoropicolinamide] | 5.66 | 9.40 | 8.77 | 10.52 | 
CC(C)C1OC(c2ccncc2NC(=O)c2nc(-c3c(F)cccc3F)ncc2N)C[C@H](N)[C@H]1O (stereo in doubt) [Example 273, 5-amino-N-(4-((2S,4S,5R,6R)-4-amino-5-hydroxy-6-isopropyltetrahydro-2H-pyran-2-yl)pyridin-3-yl)-2-(2,6-difluorophenyl)pyrimidine-4-carboxamide] | 4.79 | 6.29 | 6.18 | 7.64 | 
C[C@]1(O)[C@H](N)C[C@H](c2ccncc2NC(=O)c2ccc(F)c(-c3c(F)cccc3F)n2)O[C@@H]1C1CC1 [Example 256, N-(4-((2R,4R,5S,6R)-4-amino-6-cyclopropyl-5-hydroxy-5-methyltetrahydro-2H-pyran-2-yl)pyridin-3-yl)-6-(2,6-difluorophenyl)-5-fluoropicolinamide] | 5.33 | 8.77 | 8.21 | 9.77 | 
O=C(Nc1cc(=O)[nH]cc1[C@H]1C[C@@H](O)[C@H](O)[C@@H](CO)O1)c1ccc(F)c(-c2c(F)cccc2F)n1 [Example 226, 6-(2,6-difluorophenyl)-N-(5-((2R,4R,5S,6R)-4,5-dihydroxy-6-(hydroxymethyl)tetrahydro-2H-pyran-2-yl)-2-oxo-1,2-dihydropyridin-4-yl)-5-fluoropicolinamide] | 4.97 | 4.63 |  | 5.84 | < 5.00
C[C@@H]1O[C@H](c2ccncc2NC(=O)c2csc(-c3c(F)cccc3F)n2)C[C@H](N)[C@@]1(C)O [Example 222, N-(4-((2S,4S,5R,6S)-4-amino-5-hydroxy-5,6-dimethyltetrahydro-2H-pyran-2-yl)pyridin-3-yl)-2-(2,6-difluorophenyl)thiazole-4-carboxamide] | 5.51 | 6.72 |  | 7.99 | < 5.00
COc1cc(NC(=O)c2ccc(F)c(-c3c(F)cccc3F)n2)c([C@H]2C[C@@H](O)[C@H](O)[C@@H](CO)O2)cn1 [Example 225, 6-(2,6-difluorophenyl)-N-(5-((2R,4R,5S,6R)-4,5-dihydroxy-6-(hydroxymethyl)tetrahydro-2H-pyran-2-yl)-2-methoxypyridin-4-yl)-5-fluoropicolinamide] | < 4.60 | < 4.60 |  | 4.84 | < 5.00

These reach a higher pIC50 (GSK3β). Values come first.

pIC50 (GSK3β) | pIC50 (PIM3) | pIC50 (PIM2) | pIC50 (PIM1) | pEC50 [1] | SMILES
6.30 | 7.64 | 7.56 | 8.98 |  | CC(C)(C)[C@H]1O[C@@H](c2ccncc2NC(=O)c2ccnc(-c3c(F)cccc3F)n2)C[C@@H](N)[C@@H]1O [Example 277, N-(4-((2R,4R,5S,6R)-4-amino-6-(tert-butyl)-5-hydroxytetrahydro-2H-pyran-2-yl)pyridin-3-yl)-2-(2,6-difluorophenyl)pyrimidine-4-carboxamide]
6.01 | 6.01 | 6.09 | 7.15 |  | C[C@]1(O)[C@H](O)C[C@H](c2ccncc2NC(=O)c2nc(-c3c(F)cccc3F)ncc2N)O[C@@H]1C1CC1 [Example 246, 5-amino-N-(4-((2R,4R,5S,6R)-6-cyclopropyl-4,5-dihydroxy-5-methyltetrahydro-2H-pyran-2-yl)pyridin-3-yl)-2-(2,6-difluorophenyl)pyrimidine-4-carboxamide]
6.11 | 9.10 | 8.16 | 10.30 |  | Cc1cc(F)c(-c2nc(C(=O)Nc3cnccc3[C@H]3C[C@@H](N)[C@](C)(O)[C@@H](C)O3)ccc2F)c(F)c1 [Example 245, N-(4-((2R,4R,5S,6R)-4-amino-5-hydroxy-5,6-dimethyltetrahydro-2H-pyran-2-yl)pyridin-3-yl)-6-(2,6-difluoro-4-methylphenyl)-5-fluoropicolinamide]
5.98 | 6.30 | 5.45 | 7.70 |  | O=C(Nc1cnccc1[C@@H]1C[C@H](O)[C@@H](O)C2(CC2)O1)c1ccc(F)c(-c2c(F)cccc2F)n1 [Example 250, 6-(2,6-difluorophenyl)-N-(4-((5S,7S,8R)-7,8-dihydroxy-4-oxaspiro[2.5]octan-5-yl)pyridin-3-yl)-5-fluoropicolinamide]
7.13 | 7.73 |  | 9.19 | 5.11 | C[C@H]1O[C@@H](c2ccncc2NC(=O)c2csc(-c3c(F)cccc3F)n2)C[C@@H](N)[C@]1(C)O [Example 221, N-(4-((2R,4R,5S,6R)-4-amino-5-hydroxy-5,6-dimethyltetrahydro-2H-pyran-2-yl)pyridin-3-yl)-2-(2,6-difluorophenyl)thiazole-4-carboxamide]
